Results reported in publication PMC3615554 (Journal of biomolecular screening, 2012).
Read-outs that look alike come from different tables or passages of the source.

Legend:
[1] = test system: EGFR activation (granule formation) in A549-EGFRB cells; assay: EGFRB assay, granule count readout; format: cell-based; details: for IC50 / EC50: read-out: IC50 or EC50 (nM) Granule count; for inhibition at 10 µM: read-out: HTS % inhibition at 10 μM Granule count
[2] = test system: A549-EGFRB cells; assay: EGFRB assay, nuclei count readout; format: cell-based; details: for HTS % inhibition at 10 μM Nuclei count: pilot screen, 10 μM compound, average of duplicates; for inhibition at 10 µM: read-out: HTS % inhibition at 10 μM Nuclei count
[3] = target: recombinant EGFR kinase; details: read-out: Reported IC50 toward recombinant EGFR kinase; cited from earlier work
[4] = target: EGFR kinase (Homo sapiens, UniProt P00533); assay: Luminescence ADP production kinase assay, EGFR; format: biochemical; details: for Luminescence ADP kinase assay IC50 EGFR: 50 nM enzyme, 200 μM ATP, low limit 10 nM, * = partial inhibition
[5] = target: ABL kinase (Homo sapiens, UniProt P00519); assay: Luminescence ADP production kinase assay, ABL; format: biochemical; details: for Luminescence ADP kinase assay IC50 ABL: 50 nM enzyme, 200 μM ATP, * = partial inhibition
[6] = target: SRC kinase (Homo sapiens, UniProt P12931); assay: Luminescence ADP production kinase assay, SRC; format: biochemical; details: for Luminescence ADP kinase assay IC50 SRC: 50 nM enzyme, 200 μM ATP, * = partial inhibition
[7] = target: VEGFR1 kinase (Homo sapiens, UniProt P17948); assay: Luminescence ADP production kinase assay, VEGFR1; details: for Luminescence ADP kinase assay IC50 VEGFR1: 50 nM enzyme, 200 μM ATP, * = partial inhibition
[8] = test system: A549 cells (wild type EGFR); assay: Alamar Blue viability assay, A549; format: cell-based; details: for IC50: Homo sapiens, A549, 120 h, read-out: Alamar Blue viability assay IC50 A549; for Alamar Blue viability assay IC50 A549: 120 hours incubation, * = partial inhibition
[9] = test system: H2030 cells (wild type EGFR); assay: Alamar Blue viability assay, H2030; format: cell-based; details: for IC50: Homo sapiens, NCI-H2030, 120 h, read-out: Alamar Blue viability assay IC50 H2030; for Alamar Blue viability assay IC50 H2030: 120 hours incubation, * = partial inhibition
[10] = test system: H3255 cells (L858R EGFR mutation); assay: Alamar Blue viability assay, H3255; format: cell-based, human; details: for IC50: Homo sapiens, NCI-H3255, 120 h, read-out: Alamar Blue viability assay IC50 H3255; for Alamar Blue viability assay IC50 H3255: 120 hours incubation, * = partial inhibition
[11] = test system: HCC4011 cells (L858R EGFR mutation); assay: Alamar Blue viability assay, HCC4011; format: cell-based, human; details: for IC50: Homo sapiens, HCC4011, 120 h, read-out: Alamar Blue viability assay IC50 HCC4011; for Alamar Blue viability assay IC50 HCC4011: 120 hours incubation, * = partial inhibition
[12] = inhibitors, dose response up to 10 μM, ±standard deviation, N.E. = no effect
[13] = inhibitors, dose response up to 10 μM, N.E. = no effect, * = partial inhibition
[14] = activators, dose response up to 10 μM, N.E. = no effect

SRC kinase, sequence (P12931 whole entry): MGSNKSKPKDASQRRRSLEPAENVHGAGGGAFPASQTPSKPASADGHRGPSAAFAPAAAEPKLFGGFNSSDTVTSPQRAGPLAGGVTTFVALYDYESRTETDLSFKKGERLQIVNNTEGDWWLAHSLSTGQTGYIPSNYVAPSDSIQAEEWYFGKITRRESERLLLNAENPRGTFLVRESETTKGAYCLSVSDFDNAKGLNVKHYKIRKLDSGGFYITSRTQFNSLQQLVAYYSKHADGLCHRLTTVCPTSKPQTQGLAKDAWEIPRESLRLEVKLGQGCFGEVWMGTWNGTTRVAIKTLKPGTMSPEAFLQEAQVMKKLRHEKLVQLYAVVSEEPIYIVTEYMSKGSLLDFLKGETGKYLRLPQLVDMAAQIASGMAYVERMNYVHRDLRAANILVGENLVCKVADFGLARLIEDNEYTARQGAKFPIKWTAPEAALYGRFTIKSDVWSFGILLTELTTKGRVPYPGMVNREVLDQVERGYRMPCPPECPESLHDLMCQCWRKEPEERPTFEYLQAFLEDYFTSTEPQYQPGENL
EGFR kinase, sequence (P00533 25-1210): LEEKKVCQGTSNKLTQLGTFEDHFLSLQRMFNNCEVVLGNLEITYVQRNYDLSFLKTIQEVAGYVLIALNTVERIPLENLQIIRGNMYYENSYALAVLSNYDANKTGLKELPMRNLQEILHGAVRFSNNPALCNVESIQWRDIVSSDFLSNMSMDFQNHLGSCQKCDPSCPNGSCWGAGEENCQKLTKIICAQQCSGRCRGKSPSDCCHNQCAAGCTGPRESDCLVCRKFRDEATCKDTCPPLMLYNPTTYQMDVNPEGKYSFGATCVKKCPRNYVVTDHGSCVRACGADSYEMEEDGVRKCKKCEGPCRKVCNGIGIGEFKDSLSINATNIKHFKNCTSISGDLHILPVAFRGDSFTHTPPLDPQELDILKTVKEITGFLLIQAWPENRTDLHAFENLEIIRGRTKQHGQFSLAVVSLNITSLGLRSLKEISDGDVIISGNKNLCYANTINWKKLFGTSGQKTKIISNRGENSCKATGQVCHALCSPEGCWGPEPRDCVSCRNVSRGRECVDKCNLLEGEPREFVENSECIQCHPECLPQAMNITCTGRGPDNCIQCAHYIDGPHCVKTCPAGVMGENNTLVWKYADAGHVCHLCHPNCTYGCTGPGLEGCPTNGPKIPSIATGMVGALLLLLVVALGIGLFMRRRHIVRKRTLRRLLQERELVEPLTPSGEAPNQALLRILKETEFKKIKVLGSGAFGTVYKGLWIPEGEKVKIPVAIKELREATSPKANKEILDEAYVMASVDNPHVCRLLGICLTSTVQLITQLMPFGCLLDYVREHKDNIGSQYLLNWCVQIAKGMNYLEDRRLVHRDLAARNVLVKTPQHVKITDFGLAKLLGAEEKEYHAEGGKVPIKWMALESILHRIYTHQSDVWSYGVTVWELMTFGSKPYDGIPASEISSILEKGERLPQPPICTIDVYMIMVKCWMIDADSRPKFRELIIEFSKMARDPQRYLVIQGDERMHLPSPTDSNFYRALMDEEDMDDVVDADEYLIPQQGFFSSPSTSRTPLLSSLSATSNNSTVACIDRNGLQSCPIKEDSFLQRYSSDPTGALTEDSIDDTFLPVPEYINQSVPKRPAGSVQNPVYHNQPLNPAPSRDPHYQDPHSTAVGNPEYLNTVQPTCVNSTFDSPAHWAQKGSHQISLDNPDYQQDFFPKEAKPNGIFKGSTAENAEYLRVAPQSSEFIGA
VEGFR1 kinase, sequence (P17948 27-1338): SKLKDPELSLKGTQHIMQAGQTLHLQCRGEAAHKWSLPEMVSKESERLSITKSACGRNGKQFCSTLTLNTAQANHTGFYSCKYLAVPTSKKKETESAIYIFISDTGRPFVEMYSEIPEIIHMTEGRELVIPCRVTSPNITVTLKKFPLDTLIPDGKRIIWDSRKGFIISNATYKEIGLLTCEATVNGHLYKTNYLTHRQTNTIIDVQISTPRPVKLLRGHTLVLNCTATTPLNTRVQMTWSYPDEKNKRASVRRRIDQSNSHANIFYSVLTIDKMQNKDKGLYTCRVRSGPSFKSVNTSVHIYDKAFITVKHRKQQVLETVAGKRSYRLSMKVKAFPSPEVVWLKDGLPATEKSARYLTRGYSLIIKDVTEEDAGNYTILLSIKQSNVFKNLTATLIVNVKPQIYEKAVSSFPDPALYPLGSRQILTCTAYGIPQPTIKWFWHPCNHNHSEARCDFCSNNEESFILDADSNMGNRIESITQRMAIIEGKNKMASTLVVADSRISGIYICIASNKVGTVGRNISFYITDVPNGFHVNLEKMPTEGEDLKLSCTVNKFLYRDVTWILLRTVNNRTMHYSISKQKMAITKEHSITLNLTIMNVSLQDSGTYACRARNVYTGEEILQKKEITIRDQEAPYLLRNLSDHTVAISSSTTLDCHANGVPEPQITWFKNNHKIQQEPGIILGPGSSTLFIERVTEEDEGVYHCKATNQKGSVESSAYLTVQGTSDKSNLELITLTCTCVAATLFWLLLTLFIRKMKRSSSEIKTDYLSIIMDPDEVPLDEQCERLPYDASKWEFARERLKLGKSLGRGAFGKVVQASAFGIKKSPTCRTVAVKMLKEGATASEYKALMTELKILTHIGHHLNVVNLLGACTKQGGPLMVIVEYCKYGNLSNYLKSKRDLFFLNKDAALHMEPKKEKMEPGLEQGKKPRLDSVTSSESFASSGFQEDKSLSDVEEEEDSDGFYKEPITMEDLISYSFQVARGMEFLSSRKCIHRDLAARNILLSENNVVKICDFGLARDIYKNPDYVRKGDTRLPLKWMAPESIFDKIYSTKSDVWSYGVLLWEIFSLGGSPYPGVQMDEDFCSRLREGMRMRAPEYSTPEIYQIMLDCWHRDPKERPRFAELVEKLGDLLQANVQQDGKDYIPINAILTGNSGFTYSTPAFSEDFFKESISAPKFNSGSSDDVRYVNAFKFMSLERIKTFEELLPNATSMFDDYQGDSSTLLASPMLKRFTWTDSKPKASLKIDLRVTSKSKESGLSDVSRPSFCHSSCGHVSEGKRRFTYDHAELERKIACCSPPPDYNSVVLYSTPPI
ABL kinase, sequence (P00519 whole entry): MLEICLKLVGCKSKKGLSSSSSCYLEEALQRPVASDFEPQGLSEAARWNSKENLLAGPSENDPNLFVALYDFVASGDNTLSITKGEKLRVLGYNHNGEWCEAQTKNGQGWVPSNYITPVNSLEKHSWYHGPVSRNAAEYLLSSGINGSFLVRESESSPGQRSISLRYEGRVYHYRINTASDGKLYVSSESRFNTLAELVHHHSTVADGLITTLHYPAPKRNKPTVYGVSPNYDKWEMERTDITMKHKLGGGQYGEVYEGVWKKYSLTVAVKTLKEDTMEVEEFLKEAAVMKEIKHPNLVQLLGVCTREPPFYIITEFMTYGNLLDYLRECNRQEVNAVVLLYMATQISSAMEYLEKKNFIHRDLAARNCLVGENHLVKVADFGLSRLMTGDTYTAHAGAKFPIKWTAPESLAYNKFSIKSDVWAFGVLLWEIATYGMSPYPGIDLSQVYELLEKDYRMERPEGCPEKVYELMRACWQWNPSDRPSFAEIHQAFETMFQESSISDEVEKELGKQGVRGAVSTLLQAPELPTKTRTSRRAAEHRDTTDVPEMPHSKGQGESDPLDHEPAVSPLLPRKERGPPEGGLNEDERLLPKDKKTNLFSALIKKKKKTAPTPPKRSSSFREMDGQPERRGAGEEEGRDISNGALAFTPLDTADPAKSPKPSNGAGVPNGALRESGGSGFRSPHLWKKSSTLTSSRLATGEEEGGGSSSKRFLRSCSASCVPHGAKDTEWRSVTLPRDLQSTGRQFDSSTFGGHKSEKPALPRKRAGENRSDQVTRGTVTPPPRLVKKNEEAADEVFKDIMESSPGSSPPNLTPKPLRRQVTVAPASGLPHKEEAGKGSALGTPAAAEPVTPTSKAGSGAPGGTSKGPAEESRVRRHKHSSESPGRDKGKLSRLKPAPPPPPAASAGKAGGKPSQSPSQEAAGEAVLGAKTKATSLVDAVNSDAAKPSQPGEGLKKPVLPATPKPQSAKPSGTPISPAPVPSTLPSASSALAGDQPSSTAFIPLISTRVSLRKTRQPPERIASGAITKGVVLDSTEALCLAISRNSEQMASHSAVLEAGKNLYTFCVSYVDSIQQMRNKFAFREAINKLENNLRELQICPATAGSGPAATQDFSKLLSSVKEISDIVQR

IC50 [8] [nM] | IC50 [9] [nM] | IC50 [1] [nM] | IC50 [10] [nM] | IC50 [6] [nM] | IC50 [7] [nM] | IC50 [11] [nM] | Structure (SMILES) | IC50 [1, 12] [nM] | IC50 or EC50 (nM) Nuclei count [2, 13] | HTS % inhibition at 10 μM Nuclei count [2] [%] | inhibition at 10 µM [1] [%] | inhibition at 10 µM [2] [%] | other results
 |  |  |  |  |  |  | CO[C@H]1/C=C\C=C(/C)C(=O)NC2=CC(=O)C(NCCN(C)C)=C(C[C@@H](C)C[C@H](OC)[C@H](O)[C@@H](C)/C=C(\C)[C@@H]1OC(N)=O)C2=O [17-DMAG, 17-dimethylaminoethylamino-17-demethoxy-geldanamycin] | 29 ± 3 | N.E. | 33 |  |  | 
 |  |  |  |  |  |  | CC(C)[C@H](CO)Nc1nc(Nc2cc(N)cc(Cl)c2)c2ncn(C(C)C)c2n1 [Aminopurvalanol A, aminopurvalanol A] | 910 ± 400 | N.E.^* | 40 |  |  | 
 |  |  |  |  |  |  | CCN(CC)CC1CCN(c2ncc3ncnc(Nc4ccc(F)c(Cl)c4)c3n2)CC1.Cl.Cl [BIBU 1361] | 38 ± 7 | N.E. | 3 |  |  | IC50 [3]: 3 nM
 |  |  |  |  |  |  | C[C@H]1C[C@H]2[C@@H]3CCC4=CC(=O)C=C[C@]4(C)[C@@]3(Cl)[C@@H](O)C[C@]2(C)[C@@]1(O)C(=O)CO [Beclomethasone, beclomethasone] |  |  | 16 |  |  | Luminescence ADP kinase assay IC50 EGFR [4]: no inhibitory effects; EC50 ([1]; activators of granule formation, dose response up to 10 μM, ±standard deviation): 42 ± 7 nM; IC50 or EC50 (nM) Nuclei count [2, 14]: N.E.; Luminescence ADP kinase assay IC50 ABL [5]: no inhibitory effects; Luminescence ADP kinase assay IC50 SRC [6]: no inhibitory effects; Luminescence ADP kinase assay IC50 VEGFR1 [7]: no inhibitory effects
 |  |  |  |  |  |  | CCc1cc(-c2n[nH]c(C)c2-c2ccc3c(c2)OCCO3)c(O)cc1O [CCT 018159] |  |  |  |  |  | Inhibition of granule formation in dose response ([1]; at 5 and 10 μM): partial inhibition
 |  |  |  |  |  |  | COC(=O)/C=C/c1cc(O)ccc1O [Erbstatin analog] |  | N.E.^* | 2 |  |  | Luminescence ADP kinase assay IC50 EGFR [4]: inactive; Alamar Blue viability assay IC50 A549 [8]: only partial inhibition; Alamar Blue viability assay IC50 H2030 [9]: only partial inhibition; IC50 or EC50 (nM) Granule count [1, 12]: N.E.; Alamar Blue viability assay IC50 H3255 [10]: only partial inhibition; Luminescence ADP kinase assay IC50 ABL [5]: inactive; Luminescence ADP kinase assay IC50 SRC [6]: inactive; Luminescence ADP kinase assay IC50 VEGFR1 [7]: inactive; Alamar Blue viability assay IC50 HCC4011 [11]: only partial inhibition
 |  |  |  |  |  |  | C#Cc1cccc(Nc2ncnc3cc(OCCOC)c(OCCOC)cc23)c1 [Erlotinib, erlotinib] |  |  |  |  | 36 | IC50 or EC50 (nM) Nuclei count [2]: N.E.
> 10000 | > 10000 |  | > 10000 | > 10000 | > 10000 | > 10000 | CC1(C)O[C@@H]2C[C@H]3[C@@H]4C[C@H](F)C5=CC(=O)CC[C@]5(C)[C@H]4[C@@H](O)C[C@]3(C)[C@]2(C(=O)CO)O1 [Flurandrenolide, flurandrenolide] |  |  |  | -165 | 7 | IC50 [4]: > 10000 nM; Luminescence ADP kinase assay IC50 EGFR [4]: no inhibitory effects; Alamar Blue viability assay IC50 A549 [8]: inactive; Alamar Blue viability assay IC50 H2030 [9]: inactive; EC50 [1]: 23 ± 20 nM; IC50 or EC50 (nM) Nuclei count [2, 14]: N.E.; Alamar Blue viability assay IC50 H3255 [10]: inactive; Luminescence ADP kinase assay IC50 SRC [6]: no inhibitory effects; Luminescence ADP kinase assay IC50 VEGFR1 [7]: no inhibitory effects; Alamar Blue viability assay IC50 HCC4011 [11]: inactive
 |  |  |  |  |  |  | CN(C)c1cc2c(Nc3ccc4c(cnn4Cc4ccccc4)c3)ncnc2cn1 [GW 2974] | 1300 | N.E. | 18 |  |  | 
> 10000 | > 10000 | 2000 | 960 ± 60 | > 10000 | > 10000 | 2000 ± 200 | CS(=O)(=O)CCNCc1nc(-c2ccc3ncnc(Nc4ccc(OCc5cccc(F)c5)c(Cl)c4)c3c2)cs1 [GW 583340] |  | N.E. |  | 94 | 26 | IC50 [4]: 1300 ± 100 nM; IC50 [5]: > 10000 nM
> 10000 | > 10000 | 590 ± 30 | 1200 ± 100 |  |  | 1500 ± 100 | CS(=O)(=O)CCNCc1ccc(-c2ccc3ncnc(Nc4ccc(OCc5cccc(F)c5)c(Cl)c4)c3c2)o1 [Lapatinib, lapatinib] |  |  |  | 91 | 0 | IC50 or EC50 (nM) Nuclei count [2]: N.E.
 |  | 1300 |  |  |  |  | CO[C@@H]1[C@H](N(C)C(=O)c2ccccc2)C[C@H]2O[C@]1(C)n1c3ccccc3c3c4c(c5c6ccccc6n2c5c31)C(=O)NC4 [PKC 412] |  |  |  |  |  | 
> 10000 | > 10000 | 65 ± 8 | 49 ± 1 | 2600 ± 1300 | > 10000 | 33 ± 7 | COc1cc2ncnc(Nc3cccc(Cl)c3)c2cc1OC [Tyrphostin AG 1478] |  | N.E. |  | 94 | 12 | IC50 [5]: 2000 ± 600 nM
 |  |  |  |  |  |  | COc1cc2ncnc(Nc3ccc(Cl)cc3F)c2cc1OC [ZM-306416] | 670 ± 200 | N.E. | 21 |  |  | Alamar Blue viability assay IC50 A549 [8]: inactive; Alamar Blue viability assay IC50 H2030 [9]: inactive

Structure (SMILES) | IC50 [8] [nM] | IC50 [9] [nM] | IC50 [1] [nM] | IC50 [10] [nM] | IC50 [6] [nM] | IC50 [7] [nM] | IC50 [11] [nM] | IC50 [1, 12] [nM] | IC50 or EC50 (nM) Nuclei count [2, 13] | HTS % inhibition at 10 μM Nuclei count [2] [%] | inhibition at 10 µM [1] [%] | inhibition at 10 µM [2] [%] | other results
CC[C@@]1(O)C(=O)OCc2c1cc1n(c2=O)Cc2cc3ccccc3nc2-1 [Camptothecin, camptothecin] | 35 ± 50 | 17 ± 5 | 720 ± 100 | 390 ± 50 | > 10000 | > 10000 | 290 ± 40 |  | N.E.^* |  | 81 | 40 | IC50 [4]: > 10000 nM; IC50 [5]: > 10000 nM
COc1cc2ncnc(Nc3cccc(Br)c3)c2cc1OC [PD 153035] | > 10000 | > 10000 | 91 ± 20 | 72 ± 12 | > 10000 | > 10000 | 48 ± 12 |  |  |  | 97 | 12 | IC50 or EC50 (nM) Nuclei count [2]: N.E.
